Data set [1] in a line: Photoluminescence emission spectra in different solvents. It counts as physicochemical. As to conditions: excitation at 370nm. How it is done:
The photo-physical properties of these dye molecules with stilbene-like motifs were investigated in different solvents in order to determine their maximum absorption and emission wavelengths (Figures 6A to 6C). The compounds were dissolved in Acetonitrile (CH3CN), chloroform (CHCl3), c-hexane (c-HEX), dichloromethane (DCM), dimethylformamide (DMF), methanol (MeOH), tetrahydrofuran (THF), and toluene (Tol).
The highest emission intensity was detected when THF and c-Hex were used as solvents, with lesser intensity recorded for DMF and Tol. PyPe emits light in the blue range, with emission peaks between 380nm and 550nm. Absolute intensities of up to 3.5 x 10^6 were recorded for PyPe in c-Hex.
The photoluminescence spectra of PyPeBr upon excitation at 440nm when dissolved in CH3CN, CHCl3, DCM, DMF, MeOH, or Tol, and upon excitation at 370 nm when dissolved in c-Hex or THF is shown in Figure 4B. PyPeBr has a relatively broad emission spectrum, which depends on the solvent used. The emission spectrum of PyPeBr can be as broad to cover most of the visible range. This broad emission range offers the possibility to select a desired wavelength for imaging by applying appropriate filters.
PyPh emits light in the blue range, ranging from 400nm to 500nm. […] The loss in stability is due to the self-photobleaching reactions, which are induced by irradiation.
^1H-NMR was recorded on 400 MHz (Brucker DRX 400) and ^13C-NMR spectra were recorded on Bruker 100 MHz spectrometer at room temperature with d6-DMSO as a solvent and tetramethylsilane (TMS) as the internal standard. Mass spectra were performed on the Bruker-ION Trap Ms. Fluorescence spectra were measured on an Edinburgh Instruments FS5 Spectrofluorometer. Absorption spectra were determined on a Perkin Elmer UV/VIS Lambda 2 (190-1100 nm) spectrophotometer. IR spectra were recorded on a Perking Elmer FT-IR spectrometer Frontier 4000-400 cm^-1. Single crystal structures were obtained from a STOE-IPDS II (Single crystal diffractometer λ-Mo), solved and refined using SHELXT software package.

Data set [2] can be described thus: Photostability: UV-visible spectra of 5µM solutions after continuous irradiation with 400 nm light (Xenon-arc lamp, 300 Watt). Type of data set: physicochemical. As to conditions: for stability of the absorbance under irradiation: up to 24h. How it is done:
To examine the stability of the absorbance of PyPeBr and PyPe, 5µM solution (2.5 mL) of the respective compounds were prepared using different solvents. The compounds were then irradiated with 400nm using a Xenon-arc lamp at 300 Watt (25 nm FWHM). Following predefined irradiation periods, indicated in Figures 6A to 6H, UV-visible spectra were collected to monitor the stability of PyPeBr and PyPe in different solvents.

Another data set has as its system HEK/OVA-B16 cells. In words: Staining and fluorescence imaging of living cells. It counts as cell-based.

With `C(=C\c1ccc2ccc3cccc4ccc1c2c34)/c1ccccc1` [PyPh, (E)-1-styrylpyrene], in data set [1], the “highest emission intensity, factor less than optimal emission intensities of PyPeBr” value is recorded as about 1000. Further, the “stability of the absorbance under irradiation” value in data set [2] (5µM in DCM) is “Comparable results”; in data set [2] (5µM in MeCN), “gradually decreases over a 24h irradiation period, with a significant drop detected as early as after 15 mins of irradiation”; in data set [2] (5µM in MeOH), “gradually decreases over a 24h irradiation period, with a significant drop detected as early as after 15 mins of irradiation”. Also, the “morphological signs of cell toxicity” value in the data set on HEK/OVA-B16 cells (10µM) was “No morphological signs of cell toxicity”. For the same compound, in the data set with HEK/OVA-B16 cells (dyes applied for up to 1 hour at 10µM), the “uptake by living cells” value is on record as “readily taken up”. Besides, the “fluorescence emission spectrum in situ, peak” value in the data set on HEK/OVA-B16 cells (in situ, excited at 405 nm) was found to be 450 nm.

Turning to Cascade Blue, in data set [2] (5µM in ultra-pure water (Milli Q purification)), the “irradiation time to complete photobleaching” value is recorded as at most 8 h.

The record behind these values is patent EP4534610A1, “FLUOROPHORE COMPOUNDS AND PRODUCTION THEREOF” (Université Fribourg, priority 2023, dated 2025).
